This passage reports EC50 and Emax results from patent US10435406B2, “6,7-cyclicmorphinan derivatives and use thereof” (Purdue Pharma L.P., priority 2014, dated 2019).

What all share (format): biochemical
The target of test [1] is T1, μ-opioid receptor (Homo sapiens (Human), UniProt P35372). As to the kind of experiment: μ-opioid receptor [35S]GTPγS functional assay (HEK). Conditions: for Emax: relative to DAMGO. The method, then: (§1) [^35S]GTPγS functional assays were conducted using freshly thawed μ-receptor membranes prepared in-house from a cell line expressing recombinant μ opioid receptor in a HEK-293, CHO or U-2 OS cell background, or purchased from a commercial source (Perkin Elmer, Shelton, Conn.; or DiscovRx, Fremont, Calif.). Assay reactions were prepared by sequentially adding the following reagents to binding buffer (100 mM NaCl, 10 mM MgCl2, 20 mM HEPES, pH 7.4) on ice (final concentrations indicated): membrane protein (0.026 mg/mL), saponin ([…]), GDP ([…]) and [^35S]GTPγS (0.20 nM; Perkin Elmer, Shelton, Conn.). The prepared membrane solution (190 μl/well) was transferred to 96-shallow well polypropylene plates containing 10 μl of 20× concentrated stock solutions of the agonist [D-Ala^2, N-methyl-Phe^4 Gly-ol^5]-enkephalin (DAMGO) prepared in dimethyl sulfoxide (DMSO). Plates were incubated for […] at about 25° C. with shaking. Reactions were terminated by rapid filtration onto 96-well Unifilter GF/B filter plates (Perkin Elmer, Shelton, Conn.) using a 96-well tissue harvester (Perkin Elmer, Shelton, Conn.) followed by three filtration washes with 200 μl of ice-cold wash buffer (10 mM NaH2PO4, 10 mM Na2HPO4, pH 7.4). Filter plates were subsequently dried at 50° C. for 2-3 hours. BetaScint scintillation cocktail (Perkin Elmer, Shelton, Conn.) was added (50 μl/well) and plates were counted using a Packard Top-Count for 1 min/well. Data were analyzed using the sigmoidal dose-response curve fitting functions in GraphPad PRISM v. 3.0, or an in-house function for non-linear, sigmoidal dose-response curve-fitting.
(§2) μ GTP EC50 is the concentration of a compound providing 50% of the maximal response for the compound at a μ-opioid receptor.
(§3) μ GTP Emax (%) is the maximal effect elicited by a compound relative to the effect elicited by DAMGO, a standard agonist. Generally, the μ GTP Emax (%) value measures the efficacy of a compound to treat or prevent pain or other Conditions.
(§4) In TABLE 3, activity response of certain Compounds of the Invention to the μ- and κ-opioid receptors was determined as described above for functional assays using HEK cells.
On the technique in general: GTPγS resists hydrolysis and so accumulates on activated G proteins.

Test [2] deals with T2, κ opioid receptor (Homo sapiens (Human), UniProt P41145). Kind of test: κ-opioid receptor [35S]GTPγS functional assay (U-2 OS). Particulars: for Emax: U2OS, GTPγS, relative to U69,593. As for the experimental part:
(§5) Functional [^35S]GTPγS binding assays were conducted as follows. K opioid receptor membrane solution was prepared by sequentially adding final concentrations of 0.026 μg/μl membrane protein (in-house), 10 μg/mL saponin, 3 μM GDP and 0.20 nM [^35S]GTPγS to binding buffer (100 mM NaCl, 10 mM MgCl2, 20 mM HEPES, pH 7.4) on ice. The prepared membrane solution (190 μl/well) was transferred to 96-shallow well polypropylene plates containing 10 μl of 20× concentrated stock solutions of agonist prepared in DMSO. Plates were incubated for 30 min at a temperature of about 25° C. with shaking. Reactions were terminated by rapid filtration onto 96-well Unifilter GF/B filter plates (Perkin Elmer, Shelton, Conn.) using a 96-well tissue harvester (Packard) and followed by three filtration washes with 200 μl ice-cold binding buffer (10 mM NaH2PO4, 10 mM Na2HPO4, pH 7.4). Filter plates were subsequently dried at 50° C. for 2-3 hours. Fifty μl/well scintillation cocktail (Perkin Elmer, Shelton, Conn.) was added and plates were counted in a Packard Top-Count for 1 min/well.
(§6) GTP EC50 is the concentration of a compound providing 50% of the maximal response for the compound at a κ receptor.
(§7) κ GTP Emax (%) is the maximal effect elicited by a compound relative to the effect elicited by U69,593.
(§8) In TABLE 4, activity response of certain Compounds of the Invention to the μ- and κ-opioid receptors was determined as described above for functional assays using U-2 OS cells.

The target of test [3] is T1, μ-opioid receptor. Kind of test: μ-opioid receptor [35S]GTPγS functional assay (U-2 OS). Particulars: for Emax: U2OS, GTPγS, relative to DAMGO. As for the experimental part: as §1, §2, §3, §8
In test [4] the target is T2, κ opioid receptor. Kind of test: κ-opioid receptor [35S]GTPγS functional assay (HEK). Conditions: for Emax: HEK, GTPγS, relative to U69,593. As for the experimental part: as §5, §6, §7, §4

Usually EC50 stands for the concentration needed to bring the measured effect to its halfway point. As usually defined, the Emax is the greatest response seen or fitted, relative to the assay's reference.

Bounds are passed on as bounds.

`O=C1C[C@@H]2C[C@@]3(O)[C@H]4Cc5ccc(O)cc5[C@@]3(CCN4CC3CCOCC3)C[C@@H]2N1` [Compound 6, (6R,6aS,7aS,10aS,11aR)-2,6a-dihydroxy-14-((tetrahydro-2H-pyran-4-yl)methyl)-5,6,6a,7,7a,8,10a,11-octahydro-6,11a-(epiminoethano)naphtho[2,1-f]indol-9(10H)-one] registered an EC50 on μ-opioid receptor [1] of 1.47 µM. Also, the Emax on μ-opioid receptor [1] (HEK, GTPγS) amounted to 7.33 ± 0.88%.
`COc1ccc2c(c1)[C@]13CCN(CC4CC4)[C@H](C2)[C@]1(O)C[C@H]1CC(=O)N(C)[C@H]1C3` [Compound 15, (6R,6aS,7aS,10aS,11aR)-14-(cyclopropylmethyl)-6a-hydroxy-2-methoxy-10-methyl-5,6,6a,7,7a,8,10a,11-octahydro-6,11a-(epiminoethano)naphtho[2,1-f]indol-9(10H)-one]: the EC50 on μ-opioid receptor [1] is 0.863 ± 0.0697 µM; on κ opioid receptor [2], 0.113 ± 0.0363 µM; at μ-opioid receptor [3], 0.349 ± 0.0263 µM. Further, the maximum response (Emax) on μ-opioid receptor [1] (HEK, GTPγS) stood at 23.6 ± 2.32%; at κ opioid receptor [2] it was 129 ± 5%; at μ-opioid receptor [3], 75 ± 3%.
As to `COc1ccc2c(c1)[C@]13CCN(C)[C@H](C2)[C@]1(O)C[C@H]1CC(=O)N[C@H]1C3` [Compound 3, (6R,6aS,7aS,10aS,11aR)-6a-hydroxy-2-methoxy-14-methyl-5,6,6a, 7,7a,8,10a,11-octahydro-6,11a-(epiminoethano)naphtho[2,1-f]indol-9(10H)-one], the half-maximal effective concentration (EC50) was 18.8 ± 4.87 µM at κ opioid receptor [4], 2.28 µM on μ-opioid receptor [1], over 20 µM on κ opioid receptor [2] and 0.0929 ± 0.00603 µM on μ-opioid receptor [3]. The Emax is 52 ± 6.11% on κ opioid receptor [4]; 106 ± 0.58% at μ-opioid receptor [1] (HEK, GTPγS); 108 ± 9.39% on κ opioid receptor [2]; 102.7 ± 0.67% at μ-opioid receptor [3].
Take `O=C1C[C@@H]2C[C@@]3(O)[C@H]4Cc5ccc(O)cc5[C@@]3(CCN4CCCc3ccccc3)C[C@@H]2N1` [Compound 4, (6R,6aS,7aS,10aS,11aR)-2,6a-dihydroxy-14-(3-phenylpropyl)-5,6,6a,7,7a,8,10a,11-octahydro-6,11a-(epiminoethano)naphtho[2,1-f]indol-9(10H)-one]: the EC50 at μ-opioid receptor [1] stood at 0.321 ± 0.0206 µM. For the same compound, the Emax at μ-opioid receptor [1] (HEK, GTPγS) was determined as 47.3 ± 7.26%.
For `O=C1C[C@@H]2C[C@@]3(O)[C@H]4Cc5ccc(O)cc5[C@@]3(CCN4CC[C@@]3(c4ccccn4)CCOC4(CCCC4)C3)C[C@@H]2N1` [Compound 7, (6R,6aS,7aS,10aS,11aR)-2,6a-dihydroxy-14-(2-((R)-9-(pyridin-2-yl)-6-oxaspiro-[4.5]decan-9-yl)ethyl)-5,6,6a,7,7a,8,10a,11-octahydro-6,11a-(epiminoethano)-naphtho[2,1-f]indol-9(10H)-one], the EC50 at μ-opioid receptor [1] (HEK, GTPγS, bound given in μM, read-out: μ EC50) was over 20 µM. The compound further had an Emax on μ-opioid receptor [1] (HEK, GTPγS) of 4.5%.
For the compound `O=C1C=C2C[C@@]3(O)[C@H]4Cc5ccc(O)cc5[C@]3(C=C2N1CC1CC1)CCN4CC1CC1` [Compound 18, (6R,6aS,11aR)-10,14-bis(cyclopropylmethyl)-2,6a-dihydroxy-5,6,6a,7-tetrahydro-6,11a-(epiminoethano)naphtho[2,1-f]indol-9(10H)-one], the EC50 on μ-opioid receptor [1] is over 20 µM. In addition, the Emax at μ-opioid receptor [1] (HEK, GTPγS) stood at 6%.
Take `COc1ccc2c(c1)[C@]13CCN(CC4CC4)[C@H](C2)[C@]1(O)C[C@H]1CC(=O)N(CC(C)C)[C@H]1C3` [Compound 13, (6R,6aS,7aS,10aS,11aR)-14-(cyclopropylmethyl)-6a-hydroxy-10-isobutyl-2-methoxy-5,6,6a,7,7a,8,10a,11-octahydro-6,11a-(epiminoethano)naphtho[2,1-f]indol-9(10H)-one]: the EC50 on μ-opioid receptor [1] amounted to 0.224 ± 0.0346 µM; at κ opioid receptor [2], 0.0195 ± 0.00137 µM; at μ-opioid receptor [3] it was 0.0822 ± 0.00171 µM. In addition, the Emax on μ-opioid receptor [1] (HEK, GTPγS) amounted to 13.2 ± 1.39%; at κ opioid receptor [2], 106 ± 2.4%; at μ-opioid receptor [3], 55 ± 2%.
`O=C1C[C@@H]2C[C@@]3(O)[C@H]4Cc5ccc(O)cc5[C@@]3(CCN4CC3CC3)C[C@@H]2N1CC1CC1` [Compound 17, (6R,6aS,7aS,10aS,11aR)-10,14-bis(cyclopropylmethyl)-2,6a-dihydroxy-5,6,6a,7,7a,8,10a,11-octahydro-6,11a-(epiminoethano)-naphtho[2,1-f]indol-9(10H)-one] came in with an EC50 at μ-opioid receptor [1] of over 20 µM. The compound also came in with an Emax on μ-opioid receptor [1] (HEK, GTPγS) of 1%.
Taken in the same sequence, the figures for `CN1CC[C@]23C[C@@H]4OC(=O)N[C@H]4C[C@@]2(O)[C@H]1Cc1ccc(O)cc13` [Compound 20, (6R,6aS,7aS,10aS,11aR)-2,6a-dihydroxy-14-methyl-5,6,6a,7,7a,8,10a,11-octahydro-9H-6,11a-(epiminoethano)phenanthro[2,3-d]oxazol-9-one] were 1.31 µM and 12.4 ± 0.77%.
For the compound `CCN1C(=O)C[C@@H]2C[C@@]3(O)[C@H]4Cc5ccc(OC)cc5[C@@]3(CCN4CC3CC3)C[C@@H]21` [Compound 11, (6R,6aS,7aS,10aS,11aR)-14-(cyclopropylmethyl)-10-ethyl-6a-hydroxy-2-methoxy-5,6,6a,7,7a,8,10a,11-octahydro-6,11a-(epiminoethano)naphtho[2,1-f]indol-9(10H)-one], the EC50 at μ-opioid receptor [1] came to 0.625 ± 0.0326 µM; at κ opioid receptor [2], 0.0169 ± 0.00196 µM; at μ-opioid receptor [3], 0.204 ± 0.0112 µM. For the same compound, the Emax on μ-opioid receptor [1] (HEK, GTPγS) worked out at 36.4 ± 2.23%; at κ opioid receptor [2] it was 107 ± 3.94%; on μ-opioid receptor [3], 78 ± 3%.
With `CN1C(=O)C[C@@H]2C[C@@]3(O)[C@H]4Cc5ccc(O)cc5[C@@]3(CCN4CC3CC3)C[C@@H]21` [Compound 12, (6R,6aS,7aS,10aS,11aR)-14-(cyclopropylmethyl)-2,6a-dihydroxy-10-methyl-5,6,6a,7,7a,8,10a,11-octahydro-6,11a-(epiminoethano)naphtho[2,1-f]indol-9(10H)-one], the EC50 was found to be 0.00066 ± 1.4e-05 µM on κ opioid receptor [4] and 0.00218 ± 2.1e-05 µM at μ-opioid receptor [1]. Besides, the Emax on κ opioid receptor [4] was determined as 106 ± 6.78%; on μ-opioid receptor [1] (HEK, GTPγS), 29.3 ± 0.33%.
On to `COc1ccc2c(c1)[C@]13CCN(C)[C@H](C2)[C@]1(O)C[C@@H]1NC(=O)O[C@@H]1C3` [Compound 19, (6R,6aS,7aS,10aR,11aR)-6a-hydroxy-2-methoxy-14-methyl-5,6,6a,7,7a,8,10a,11-octahydro-9H-6,11a-(epiminoethano)phenanthro[2,3-d]oxazol-9-one], for which, at μ-opioid receptor [1], the EC50 is over 20 µM. Besides, the Emax at μ-opioid receptor [1] (HEK, GTPγS) amounted to 2 ± 0.58%.
Take `COc1ccc2c(c1)[C@]13CCN(C)[C@H](C2)[C@]1(O)CC1=CC(=O)N[C@H]1C3` [Compound 2, (6R,6aS,10aS,11aR)-6a-hydroxy-2-methoxy-14-methyl-5,6,6a,7,10a,11-hexahydro-6,11a-(epiminoethano)naphtho[2,1-f]indol-9(10H)-one]: the EC50 was 12.3 ± 0.615 µM at μ-opioid receptor [1], over 20 µM on κ opioid receptor [2] and 0.739 ± 0.059 µM on μ-opioid receptor [3]. Moreover, the Emax at μ-opioid receptor [1] (HEK, GTPγS) was 51.8 ± 0.39%; on κ opioid receptor [2] it was 84.7 ± 2.73%; on μ-opioid receptor [3], 103.3 ± 0.67%.
Take `COc1ccc2c(c1)[C@]13CCN(CC4CC4)[C@H](C2)[C@]1(O)C[C@H]1CC(=O)N(CC2CC2)[C@H]1C3` [Compound 14, (6R,6aS,7aS,10aS,11aR)-10,14-bis(cyclopropylmethyl)-6a-hydroxy-2-methoxy-5,6,6a,7,7a,8,10a,11-octahydro-6,11a-(epiminoethano)naphtho[2,1-f]indol-9(10H)-one]: the concentration giving a half-maximal response (EC50) stood at 0.146 ± 0.0211 µM at μ-opioid receptor [1], 0.0166 ± 0.00193 µM at κ opioid receptor [2] and 0.0495 ± 0.00387 µM at μ-opioid receptor [3]. For the same compound, the Emax came out at 13.2 ± 0.95% on μ-opioid receptor [1] (HEK, GTPγS); 101.8 ± 0.63% at κ opioid receptor [2]; 43.7 ± 4.7% at μ-opioid receptor [3].
